From US20250152586A1, “PHARMACEUTICAL COMPOSITION FOR RELIEVING OR TREATING PAIN BY REGULATING CEREBELLAR GLIAL CELLS AND METHOD FOR RELIEVING OR TREATING PAIN” (Seoul National University R&DB Foundation, priority 2021, published 2025)
Structures can show the parent of a compound that is named as a salt. Each block holds one compound with its values, some of them ahead of it.

Tests used:
[1] = target: T1, hM4D (Gi) expressed in locus coeruleus cells (Homo sapiens, UniProt P08173, A203G/Y113C); assay: Capsaicin-induced pain licking time with chemogenetic inhibition of the axon terminals of locus coeruleus cells in the cerebellum (hM4D (Gi) activated by C21); type: in vivo, mice; conditions: 0.5 μl of 1 mM C21 into cerebellar cortex via cannula (vermis lobule IV/V), hM4D (Gi) in LC, about 10 minutes after, vs control; FIG. 3B
T1 construct: expressed in transfected cells; host or cells: mouse locus coeruleus cells, transduced in vivo by virus; agonist C21 applied at their axon terminals in the cerebellar cortex
T1 sequence (P08173 1-479 Y113C/A203G): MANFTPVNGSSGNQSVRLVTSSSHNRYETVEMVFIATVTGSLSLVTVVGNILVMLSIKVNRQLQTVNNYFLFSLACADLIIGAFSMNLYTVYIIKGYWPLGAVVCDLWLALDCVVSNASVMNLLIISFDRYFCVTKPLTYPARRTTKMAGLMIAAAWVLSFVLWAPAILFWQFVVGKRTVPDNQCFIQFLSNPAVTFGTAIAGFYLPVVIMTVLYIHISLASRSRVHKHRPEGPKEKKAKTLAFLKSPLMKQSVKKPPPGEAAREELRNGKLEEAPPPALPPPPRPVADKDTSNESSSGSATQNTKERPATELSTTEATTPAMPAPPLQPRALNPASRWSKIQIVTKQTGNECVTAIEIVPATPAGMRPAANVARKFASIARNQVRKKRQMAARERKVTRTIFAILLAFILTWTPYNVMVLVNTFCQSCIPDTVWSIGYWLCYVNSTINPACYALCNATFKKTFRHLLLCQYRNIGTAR
Experimental: (§1) 1-2. Drug Injection For chemogenetic inhibition of cerebellar glial cells, CNO was injected intraperitoneally at a dose of 5 to 10 mg/kg. For chemogenetic inhibition of locus coeruleus cells, 0.5 μl of 1 mM C21 was directly injected into the cerebellar cortex through a cannula installed in cerebellar vermis lobule IV/V. Prazosin (100 μM, 0.5 μl) and muscimol (100 μM, 0.5 μl), which are alpha-1 adrenergic receptor inhibitors or GABAA agonists, were injected through cannulas targeting the cerebellar cortex and cerebellar nuclei, respectively.
(§2) To confirm the pain pattern caused by capsaicin, the degree of pain was recorded for a total of 30 minutes, 10 minutes before the injection of capsaicin and 20 minutes after the injection of capsaicin (FIG. 1B).
Using non-genetically modified wild-type mice, a specific chemogenetic inhibitory virus which targets locus coeruleus cells was injected. […] Further, in this case, to confirm that the inhibition of the axon terminals of the locus coeruleus only affected the pain pattern, basic motor function was measured using the ledge test and gait test described above in Example 1-3. […]

[2] = Basic motor function, ledge test and gait test; type: in vivo, mice; conditions: vs control
Experimental: To confirm whether basic behavioral patterns were affected when the activity of cerebellar glial cells was regulated, basic movements were measured by placing the mice in a chamber measuring 40 cm in length and width (FIG. 1D).
A ledge test was first performed to measure motor coordination. […] A score closer to 3 was determined to be normal, and a score closer to 0 was determined to be abnormal motor coordination. (FIG. 1E, ledge test).
A gait test was secondly performed to measure motor coordination. An experimenter measured the mouse's walking pattern without being observed. […] A score closer to 3 was determined to be normal, and a score closer to 0 was determined to be abnormal motor coordination (FIG. 1E, gait test).

[3] = target: T2, hM4D (Gi) expressed in cerebellar glial cells (vermis lobule IV/V) (Homo sapiens, UniProt P08173, A203G/Y113C); assay: Capsaicin-induced pain licking time with chemogenetic inhibition of cerebellar glial cells (hM4D (Gi) activated by CNO); type: in vivo, mice; conditions: CNO intraperitoneal 5 to 10 mg/kg, about 1 hour after, vs control, FIG. 2B
T2 construct: expressed in transfected cells; host or cells: mouse cerebellar glial cells (vermis lobule IV/V), transduced in vivo by virus
T2 sequence (P08173 1-479 Y113C/A203G): T1 sequence (P08173 1-479 Y113C/A203G)
Experimental: Using non-genetically modified wild-type mice, a specific chemogenetic inhibitory virus which targets cerebellar glial cells was injected. […] Therefore, CNO, an agonist capable of activating the corresponding virus, was injected intraperitoneally at a dose of 5 to 10 mg/kg. Behavioral experiments were performed about 1 hour after glial cells were inhibited (FIG. 2A).

GABAA receptor = assay: Capsaicin-induced pain licking time after local injection of muscimol into the deep cerebellar nuclei; type: in vivo, mice; conditions: muscimol 100 μM, 0.5 μl, local into deep cerebellar nuclei (DCN) via cannula, 10 minutes after, vs control; FIG. 6B
Experimental: as §1, §2
Information processed in the cerebellar cortex converges to the cerebellar nuclei. To investigate the pain pattern induced by capsaicin when the cerebellar nuclei, the target of cerebellar output, were inhibited, the deep cerebellar nuclei (DCN) region was locally administered muscimol (100 μM, 0.5 μl), an inhibitory neurotransmitter GABAA receptor agonist, through a cannula. The licking time was measured 10 minutes after the injection when the effect of muscimol appeared (FIG. 6A).

[4] = test system: alpha-1 adrenergic receptors in cerebellar glial cells; assay: Capsaicin-induced pain licking time after local injection of prazosin into the cerebellum; type: in vivo, mice; conditions: prazosin 100 μM, 0.5 μl, local into cerebellum (vermis lobule IV/V) via cannula, about 10 minutes after, vs control; FIG. 4B
Experimental: as §1, §2
Alpha-1 adrenergic receptors in cerebellar glial cells are activated by norepinephrine. To inhibit this, prazosin (100 μM, 0.5 μl), an alpha-1 adrenergic receptor antagonist, was locally injected only into the cerebellum (vermis lobule IV/V) via a cannula. Thereafter, behavioral experiments were performed about 10 minutes after the alpha-1 adrenergic receptors were inhibited (FIG. 4A).

[5] = test system: cerebellar glial cell-specific alpha-1 adrenergic receptors; assay: Capsaicin-induced pain licking time after knockdown with cerebellar glial cell-specific shRNA; type: in vivo; conditions: Cre-dependent shRNA virus in Glast-Cre/ERT mice after tamoxifen, vs control; FIG. 5B
Experimental: Using non-genetically modified wild-type mice, a specific chemogenetic inhibitory virus which targets cerebellar glial cells and locus coeruleus cells was injected. To specifically remove alpha1-adrenergic receptors from cerebellar glial cells, using Glast-Cre (Tg(Slcla3-Cre/ERT) 1Nat/J), a genetically modified mouse in which Cre is expressed by tamoxifen specifically in only cerebellar glial cells, Cre was expressed by injecting tamoxifen, and then a virus that removes the alpha1-adrenergic receptor in a Cre-dependent manner was injected.
as §2
As another approach to prevent the activity of cerebellar glial cells, alpha-1 adrenergic receptors were inhibited using cerebellar glial cell-specific shRNA. To specifically remove alpha1-adrenergic receptors from cerebellar glial cells, using Glast-Cre (Tg(Slcla3-Cre/ERT) 1Nat/J), a genetically modified mouse in which Cre is expressed by tamoxifen specifically in only cerebellar glial cells, Cre was expressed by injecting tamoxifen, and then a virus that removes the alpha1-adrenergic receptor in a Cre-dependent manner was injected. Glast-cre (Tg(Slcla3-cre/ERT) 1 Nat/J) mice were purchased from Jackson Labs, USA. […]

Compound: Cl.Cl.c1ccc2c(c1)N=C(N1CCNCC1)c1ccccc1N2 [C21, DREADD agonist 21(Compound 21)]
licking time (pain induced by capsaicin) [1]: significantly reduced
basic motor performance (ledge test and gait test) ([2]; 0.5 μl of 1 mM C21 into cerebellar cortex, hM4D (Gi) in LC, FIG. 3C): no significance difference

licking time (pain induced by capsaicin) [3]: significantly reduced
Compound: C[N+]1([O-])CCN(C2=Nc3cc(Cl)ccc3Nc3ccccc32)CC1.Cl.Cl [CNO, Clozapine N-oxide (CNO) dihydrochloride]

Compound: NCc1cc(=O)[nH]o1 [muscimol, Muscimol]
licking time (pain induced by capsaicin) (GABAA receptor): significantly reduced
basic motor performance (ledge test and gait test) ([2]; muscimol 100 μM, 0.5 μl, local into DCN, FIG. 6C): no significance difference

basic motor performance (ledge test and gait test) ([2]; prazosin 100 μM, 0.5 μl, local into cerebellum, FIG. 4C): no significance difference
Compound: COc1cc2nc(N3CCN(C(=O)c4ccco4)CC3)nc(N)c2cc1OC [prazosin, Prazosin hydrochloride]
licking time (pain induced by capsaicin) [4]: significantly reduced

Compound: shRNA: Cre-dependent cerebellar glial cell-specific shRNA (534-558) against alpha-1 adrenergic receptor, GAGCCACACTTAGCTAACCATTTCA (guide GAGCCACACUUAGCUAACCAUUUCA)
licking time (pain induced by capsaicin) [5]: significantly reduced
